Measurements as given in the NIST ThermoML archive (doi:10.1016/j.jct.2007.07.005).
± gives the expanded uncertainty stated by the source.

Conditions: Fluid (supercritical or subcritical phases), vibrating tube

CCCCCO [pentan-1-ol]
Conditions	mass density [kg/m3]
312.96 K, 512 kPa	799.65 ± 0.43
312.96 K, 1022 kPa	800.04 ± 0.43
312.96 K, 1998 kPa	800.77 ± 0.44
312.96 K, 3005 kPa	801.53 ± 0.44
312.96 K, 4003 kPa	802.28 ± 0.44
312.96 K, 5002 kPa	803.02 ± 0.44
312.96 K, 6018 kPa	803.76 ± 0.44
312.96 K, 6994 kPa	804.49 ± 0.44
312.96 K, 8008 kPa	805.21 ± 0.44
312.96 K, 9005 kPa	805.93 ± 0.44
312.96 K, 10008 kPa	806.66 ± 0.44
312.96 K, 11008 kPa	807.37 ± 0.44
312.96 K, 12000 kPa	808.07 ± 0.44
312.96 K, 13024 kPa	808.78 ± 0.44
312.96 K, 13987 kPa	809.45 ± 0.44
312.96 K, 15014 kPa	810.14 ± 0.45
312.96 K, 15991 kPa	810.8 ± 0.45
312.96 K, 17019 kPa	811.48 ± 0.45
312.96 K, 17991 kPa	812.12 ± 0.45
312.96 K, 19007 kPa	812.79 ± 0.45
312.96 K, 19992 kPa	813.44 ± 0.45
312.96 K, 21031 kPa	814.1 ± 0.45
312.96 K, 22041 kPa	814.76 ± 0.45
312.96 K, 23014 kPa	815.41 ± 0.45
312.96 K, 24003 kPa	816.04 ± 0.45
312.96 K, 25037 kPa	816.73 ± 0.45
322.89 K, 520 kPa	792.06 ± 0.43
322.89 K, 1010 kPa	792.47 ± 0.43
322.89 K, 2005 kPa	793.27 ± 0.43
322.89 K, 3007 kPa	794.07 ± 0.44
322.89 K, 4005 kPa	794.86 ± 0.44
322.89 K, 5018 kPa	795.63 ± 0.44
322.89 K, 6001 kPa	796.42 ± 0.44
322.89 K, 7016 kPa	797.2 ± 0.44
322.89 K, 8020 kPa	797.97 ± 0.44
322.89 K, 8997 kPa	798.71 ± 0.44
322.89 K, 10001 kPa	799.47 ± 0.44
322.89 K, 11005 kPa	800.21 ± 0.44
322.89 K, 11996 kPa	800.95 ± 0.44
322.89 K, 13002 kPa	801.68 ± 0.44
322.89 K, 14013 kPa	802.4 ± 0.44
322.89 K, 15005 kPa	803.11 ± 0.44
322.89 K, 16014 kPa	803.82 ± 0.45
322.89 K, 17001 kPa	804.51 ± 0.45
322.89 K, 18016 kPa	805.21 ± 0.45
322.89 K, 19012 kPa	805.89 ± 0.45
322.89 K, 19992 kPa	806.56 ± 0.45
322.89 K, 21036 kPa	807.26 ± 0.45
322.89 K, 22003 kPa	807.92 ± 0.45
322.89 K, 23024 kPa	808.61 ± 0.45
322.89 K, 23994 kPa	809.26 ± 0.45
322.89 K, 25023 kPa	810 ± 0.45
332.79 K, 493 kPa	784.29 ± 0.43
332.79 K, 1014 kPa	784.76 ± 0.43
332.79 K, 2006 kPa	785.61 ± 0.43
332.79 K, 3025 kPa	786.48 ± 0.43
332.79 K, 4011 kPa	787.28 ± 0.44
332.79 K, 5020 kPa	788.11 ± 0.44
332.79 K, 6003 kPa	788.91 ± 0.44
332.79 K, 6997 kPa	789.73 ± 0.44
332.79 K, 8009 kPa	790.54 ± 0.44
332.79 K, 8995 kPa	791.31 ± 0.44
332.79 K, 9996 kPa	792.12 ± 0.44
332.79 K, 11018 kPa	792.9 ± 0.44
332.79 K, 11995 kPa	793.66 ± 0.44
332.79 K, 13023 kPa	794.45 ± 0.44
332.79 K, 13999 kPa	795.19 ± 0.44
332.79 K, 15010 kPa	795.95 ± 0.44
332.79 K, 16028 kPa	796.68 ± 0.44
332.79 K, 17003 kPa	797.41 ± 0.45
332.79 K, 18040 kPa	798.14 ± 0.45
332.79 K, 19004 kPa	798.84 ± 0.45
332.79 K, 20035 kPa	799.59 ± 0.45
332.79 K, 21024 kPa	800.29 ± 0.45
332.79 K, 21993 kPa	800.97 ± 0.45
332.79 K, 23039 kPa	801.71 ± 0.45
332.79 K, 24015 kPa	802.4 ± 0.45
332.79 K, 25022 kPa	803.12 ± 0.45
342.76 K, 505 kPa	776.31 ± 0.43
342.76 K, 997 kPa	776.77 ± 0.43
342.76 K, 1995 kPa	777.69 ± 0.43
342.76 K, 3011 kPa	778.59 ± 0.43
342.76 K, 4012 kPa	779.47 ± 0.43
342.76 K, 5011 kPa	780.34 ± 0.44
342.76 K, 6011 kPa	781.22 ± 0.44
342.76 K, 7003 kPa	782.03 ± 0.44
342.76 K, 8015 kPa	782.91 ± 0.44
342.76 K, 9000 kPa	783.73 ± 0.44
342.76 K, 10019 kPa	784.58 ± 0.44
342.76 K, 11020 kPa	785.4 ± 0.44
342.76 K, 12002 kPa	786.2 ± 0.44
342.76 K, 13016 kPa	787.02 ± 0.44
342.76 K, 14024 kPa	787.81 ± 0.44
342.76 K, 15002 kPa	788.59 ± 0.44
342.76 K, 16007 kPa	789.36 ± 0.44
342.76 K, 17037 kPa	790.15 ± 0.44
342.76 K, 17988 kPa	790.87 ± 0.45
342.76 K, 19037 kPa	791.66 ± 0.45
342.76 K, 20003 kPa	792.38 ± 0.45
342.76 K, 21015 kPa	793.14 ± 0.45
342.76 K, 22019 kPa	793.88 ± 0.45
342.76 K, 23039 kPa	794.62 ± 0.45
342.76 K, 24027 kPa	795.36 ± 0.45
342.76 K, 25028 kPa	796.1 ± 0.45
352.71 K, 508 kPa	768.15 ± 0.43
352.71 K, 1011 kPa	768.66 ± 0.43
352.71 K, 1995 kPa	769.61 ± 0.43
352.71 K, 3014 kPa	770.57 ± 0.43
352.71 K, 3998 kPa	771.49 ± 0.43
352.71 K, 5022 kPa	772.45 ± 0.43
352.71 K, 6012 kPa	773.35 ± 0.44
352.71 K, 7006 kPa	774.26 ± 0.44
352.71 K, 8024 kPa	775.17 ± 0.44
352.71 K, 9005 kPa	776.05 ± 0.44
352.71 K, 10016 kPa	776.94 ± 0.44
352.71 K, 11026 kPa	777.81 ± 0.44
352.71 K, 12001 kPa	778.65 ± 0.44
352.71 K, 13002 kPa	779.5 ± 0.44
352.71 K, 14026 kPa	780.35 ± 0.44
352.71 K, 15000 kPa	781.18 ± 0.44
352.71 K, 16005 kPa	781.98 ± 0.44
352.71 K, 17023 kPa	782.81 ± 0.44
352.71 K, 18003 kPa	783.59 ± 0.44
352.71 K, 19049 kPa	784.43 ± 0.45
352.71 K, 20035 kPa	785.2 ± 0.45
352.71 K, 21002 kPa	785.96 ± 0.45
352.71 K, 21995 kPa	786.73 ± 0.45
352.71 K, 23020 kPa	787.52 ± 0.45
352.71 K, 24045 kPa	788.32 ± 0.45
352.71 K, 25009 kPa	789.05 ± 0.45
362.59 K, 517 kPa	759.7 ± 0.43
362.59 K, 1023 kPa	760.25 ± 0.43
362.59 K, 2005 kPa	761.26 ± 0.43
362.59 K, 3010 kPa	762.29 ± 0.43
362.59 K, 3998 kPa	763.28 ± 0.43
362.59 K, 5006 kPa	764.25 ± 0.43
362.59 K, 6013 kPa	765.23 ± 0.43
362.59 K, 7014 kPa	766.21 ± 0.44
362.59 K, 8007 kPa	767.16 ± 0.44
362.59 K, 9020 kPa	768.1 ± 0.44
362.59 K, 10006 kPa	769.02 ± 0.44
362.59 K, 10991 kPa	769.93 ± 0.44
362.59 K, 12025 kPa	770.87 ± 0.44
362.59 K, 13008 kPa	771.76 ± 0.44
362.59 K, 13998 kPa	772.62 ± 0.44
362.59 K, 15017 kPa	773.51 ± 0.44
362.59 K, 16000 kPa	774.37 ± 0.44
362.59 K, 17013 kPa	775.24 ± 0.44
362.59 K, 18032 kPa	776.11 ± 0.44
362.59 K, 19003 kPa	776.9 ± 0.44
362.59 K, 20030 kPa	777.77 ± 0.45
362.59 K, 20987 kPa	778.55 ± 0.45
362.59 K, 22033 kPa	779.4 ± 0.45
362.59 K, 23000 kPa	780.2 ± 0.45
362.59 K, 24031 kPa	781.02 ± 0.45
362.59 K, 25026 kPa	781.82 ± 0.45
